Source: patent US20260364184A1, “COMPOUND BASED ON OXOISOINDOLINYL-SUBSTITUTED TETRAHYDROPYRIMIDINE-DIONE AND USE THEREOF” (GLUETACS THERAPEUTICS (SHANGHAI) CO., LTD., priority 2023, published 2026)
Where two headings read alike, the source gives them in different places. Blank lines part the entries; values can stand above or below the compound they belong to.

Key:
Assay type in all cases: cell-based
AR = target: T1, AR (Homo sapiens, UniProt P10275); assay: Western blot degradation of AR; conditions: LnCap Cell; 24 hours
T1 construct: expression of target proteins in cells; endogenous in cells
T1 sequence (P10275 1-920): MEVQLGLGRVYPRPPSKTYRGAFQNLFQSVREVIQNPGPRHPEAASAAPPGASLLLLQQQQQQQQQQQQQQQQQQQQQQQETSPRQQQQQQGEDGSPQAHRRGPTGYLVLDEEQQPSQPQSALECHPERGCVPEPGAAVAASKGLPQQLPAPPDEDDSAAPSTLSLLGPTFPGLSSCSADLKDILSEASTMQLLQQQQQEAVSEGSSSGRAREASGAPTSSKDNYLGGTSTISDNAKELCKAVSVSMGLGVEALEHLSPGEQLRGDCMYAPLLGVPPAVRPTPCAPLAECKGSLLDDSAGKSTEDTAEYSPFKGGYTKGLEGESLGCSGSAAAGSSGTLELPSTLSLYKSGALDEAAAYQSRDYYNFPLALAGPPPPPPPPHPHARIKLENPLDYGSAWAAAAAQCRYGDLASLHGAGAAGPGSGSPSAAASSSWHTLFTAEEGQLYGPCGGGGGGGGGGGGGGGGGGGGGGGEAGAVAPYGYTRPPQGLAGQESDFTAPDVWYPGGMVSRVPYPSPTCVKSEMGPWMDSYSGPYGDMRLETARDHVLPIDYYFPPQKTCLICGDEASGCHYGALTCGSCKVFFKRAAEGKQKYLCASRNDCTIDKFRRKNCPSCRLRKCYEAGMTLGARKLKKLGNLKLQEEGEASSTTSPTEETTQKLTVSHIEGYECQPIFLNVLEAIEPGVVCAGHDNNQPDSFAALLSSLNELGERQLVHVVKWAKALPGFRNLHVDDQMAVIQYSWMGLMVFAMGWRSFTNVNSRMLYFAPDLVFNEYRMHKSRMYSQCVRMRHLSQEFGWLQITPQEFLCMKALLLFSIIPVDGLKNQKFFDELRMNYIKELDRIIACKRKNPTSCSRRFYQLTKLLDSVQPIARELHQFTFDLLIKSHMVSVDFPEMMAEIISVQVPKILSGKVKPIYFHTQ
Method: Conventional Western blot assay was performed to evaluate the effects of the compounds of the present disclosure on the expression of target proteins in cells.
(1) Cell Seeding and Protein Harvesting: The selected cells were processed according to the cell seeding procedure and protein harvesting procedure in Table II-2.
(2) To the collected supernatant, 5×SDS sample loading buffer was added, followed by denaturation at 95 °C for 5 minutes. The denatured samples were then separated by SDS-PAGE electrophoresis on a polyacrylamide gel. Proteins were transferred to a nitrocellulose membrane (0.45 μm NC membrane), blocked with blocking buffer at room temperature for 1 hour, and subjected to antibody incubation and development procedures according to the antibody manufacturer's instructions (Cell Signaling Technology).
Half-Maximal Degradation Concentration value (the drug concentration required for degrading proteins by 50%, abbreviated as DC50) reads method: comparing the grayscale values of Western blot bands from drug-treated samples with those from blank DMSO-treated controls, and identifying the drug concentration range at which the grayscale value is half that of the DMSO-treated control bands.
DC50 values can be calculated using ImageJ software to measure grayscale values of Western blot bands from drug-treated samples. The concentration-response curve is fitted to estimate the drug concentration corresponding to half the grayscale value.
Target protein remaining (%) refers to the percentage of target protein remaining in cells after treatment with protein degrader compounds.
Calculation method for target protein remaining (%): Use ImageJ software to measure grayscale values of Western blot bands from drug (protein degrader)-treated samples. The grayscale value of drug-treated bands is divided by that of internal control protein bands, and the resulting quotient is normalized to obtain the relative percentage of remaining target protein after protein degrader treatment.
Target protein degradation rate (%)=1−target protein remaining (%).

[1] = tested on: Human Multiple myeloma cell line (MM.1S); assay: Inhibition of MM.1S cell proliferation (CellTiter luminescent viability); conditions: Homo sapiens, MM1.S, Table IG1, FAK inhibitor-based, 96 hours; for inhibition at 0.01 µM: 10 nM, read-out: Inhibition Rate at 10 nM (%); for inhibition at 0.5 µM: 500 nM, read-out: Inhibition Rate at 500 nM (%)
How it was run: (§1)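 Cells are seeded in 96-well plates, cultured at 37 °C, 5% CO2, and treated next day with 5-fold serial compound dilutions (stock series from 2000 μM; 0.5 μL into 100 μL medium). Viability is read by CellTiter-Meiluncell luminescence after the set exposure, and IC50 is taken from growth-inhibition curves.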

[2] = tested on: Human myeloid monocytic leukemia cell line (MV-4-11); assay: Inhibition of MV-4-11 cell proliferation (CellTiter luminescent viability); conditions: Homo sapiens, MV4-11; for inhibition at 0.01 µM: read-out: Inhibition Rate at 10 nM (%); for inhibition at 0.5 µM: read-out: Inhibition Rate at 500 nM (%)
How it was run: as §1

[3] = tested on: Human breast cancer cell line (MDA-MB-231); assay: Inhibition of MDA-MB-231 cell proliferation (CellTiter luminescent viability); conditions: for inhibition at 0.01 µM: read-out: Inhibition Rate at 10 nM (%); for inhibition at 0.5 µM: read-out: Inhibition Rate at 500 nM (%)
Method: The tumor cells used herein were cultured in a cell culture medium listed in table 3 at 37 °C in an incubator with 5% CO2. Prior to experimentation, all cell lines used were correctly identified by STR profiling, and tested negative for mycoplasma contamination using a mycoplasma detection kit through routine screenings.
The IC50 values of the compounds of the present disclosure (including the compounds in Table 1, Table 2, and Examples 1-468) were determined using the CellTiter-Meiluncell Luminescent Cell Viability Assay Kit from Dalian Meilun Biotech Co., Ltd. The detailed procedure is as follows: Tumor cells were seeded in 96-well cell culture plates at the densities specified in Table 4. On the following day, the test compounds of the present disclosure were subjected to serial dilution. The dilution can be performed according to one of the following two methods: • (1) The first dilution method: The test compounds of the present disclosure (including the compounds in Table 1, Table 2, and Examples 1-468) were subjected to 5-fold serial dilutions starting from a highest concentration of 2000 μM, resulting in a total of 9 concentrations from high to low (2000, 400, 80, 16, 3.2, 0.64, 0.128, 0.0256, 0.00512 μM). Subsequently, 0.5 μL of the test compound dilution was transferred into the 96-well plate containing the cells, with each well containing 100 μL of cell culture medium. […] Into the 96-well plate, the diluted test compounds and corresponding detection reagents were added, resulting in final test compound concentrations of 500 nM and 10 nM, respectively. The experimental procedure is described below using the diluted 2 μM test compound as an example.
0.5 μL of the aforementioned diluted compound of the present disclosure (including the compounds in Table 1, Table 2, and Examples 1-468) was added to the seeded cells in 100 μL of medium, yielding a final test compound concentration of 10 nM. After the cells were treated with the compounds of the present disclosure for a specified period, the cell viability assay reagent was added to the culture medium according to the kit's instructions to determine cell viability. […] All controls were treated using the same procedure as the compounds of the present disclosure. The growth inhibition curves for the compounds of the present disclosure were plotted using Prism GraphPad software, and the IC50 values were calculated therefrom.

[4] = tested on: Human lung cancer cell line (H292); assay: Inhibition of H292 cell proliferation (CellTiter luminescent viability); conditions: NCI-H292, H292 cell; for inhibition at 0.01 µM: 10 nM, read-out: Inhibition Rate at 10 nM (%); for inhibition at 0.5 µM: 500 nM, read-out: Inhibition Rate at 500 nM (%)
[5] = Table IG2, FAK inhibitor-based, MV-4-11, 10 nM, 96 hours
[6] = Table IG2, FAK inhibitor-based, MV-4-11, 500 nM, 96 hours
[7] = Table IG3, FAK inhibitor-based, MDA-MB-231, 10 nM, 96 hours
[8] = Table IG3, FAK inhibitor-based, MDA-MB-231, 500 nM, 96 hours

Degradation of substrate protein AR (substrate protein remaining %) (AR): A (0%≤substrate protein remaining %≤80%)
Structure (SMILES): Cn1cc(-c2cc(S(C)(=O)=O)ccc2OCc2ccc3c(c2)CN(N2CCC(=O)NC2=O)C3=O)c2cc[nH]c2c1=O [GT-06413, 1-(5-((2-(6-methyl-7-oxo-6,7-dihydro-1H-pyrrolo[2,3-c]pyridin-4-yl)-4-(methylsulfonyl)phenoxy)methyl)-1-oxoisoindolin-2-yl)dihydropyrimidine-2,4 (1H,3H)-dione]

Structure (SMILES): CN(c1cccc(CNc2nc(Nc3ccc(N4CCC(N5CCN(CC6CCN(c7cccc8c7C(=O)N(N7CCC(=O)NC7=O)C8=O)CC6)CC5)CC4)cc3)ncc2C(F)(F)F)c1)S(C)(=O)=O [GT-08248, N-(3-(((2-((4-(4-(4-((1-(2-(2,4-dioxotetrahydropyrimidin-1(2H)-yl)-1,3-dioxoisoindolin-4-yl)piperidin-4-yl)methyl)piperazin-1-yl)piperidin-1-yl)phenyl)amino)-5-(trifluoromethyl)pyrimidin-4-yl)amino)methyl)phenyl)-N-methylmethanesulfonamide]
inhibition at 0.01 µM [1]: 30 to 40% | inhibition at 0.5 µM [1]: 60 to 80% | inhibition at 0.01 µM [2, 5]: 20 to 30% | inhibition at 0.5 µM [2, 6]: 80 to 100% | inhibition at 0.01 µM [3, 7]: 20 to 30% | inhibition at 0.5 µM [3, 8]: 70 to 80%

Degradation of substrate protein AR (substrate protein remaining %) (AR): A (0%≤substrate protein remaining %≤80%)
Structure (SMILES): N#Cc1ccc(O[C@H]2CC[C@H](NC(=O)c3ccc(N4CCC(CN5CCN(c6ccc7c(c6)C(=O)N(N6CCC(=O)NC6=O)C7=O)CC5)CC4)nn3)CC2)cc1Cl [GT-05225, N-((1r,4r)-4-(3-chloro-4-cyanophenoxy)cyclohexyl)-6-(4-((4-(2-(2,4-dioxotetrahydropyrimidin-1(2H)-yl)-1,3-dioxoisoindolin-5-yl)piperazin-1-yl)methyl)piperidin-1-yl)pyridazine-3-carboxamide]

Structure (SMILES): CNC(=O)c1ccccc1Nc1cc(Nc2ccc(N3CCOCC3)cc2OC)ncc1C(F)(F)F [PND-1186, reference compound]
inhibition at 0.01 µM [1]: 5 to 10% | inhibition at 0.5 µM [1]: 20 to 30% | inhibition at 0.01 µM [2, 5]: 5 to 10% | inhibition at 0.5 µM [2, 6]: 60 to 70% | inhibition at 0.01 µM [3, 7]: 30 to 40% | inhibition at 0.5 µM [3, 8]: 40 to 50%

Structure (SMILES): Nc1cccc2c1CN(C1CCC(=O)NC1=O)C2=O (stereo not drawn) [Lenalidomide, lenalidomide, reference compound]
inhibition at 0.01 µM ([2]; MV-4-11 cell, 10 nM): 20 to 30% | inhibition at 0.5 µM ([2]; MV-4-11 cell, 500 nM): 10 to 15% | inhibition at 0.01 µM [4]: 15 to 20% | inhibition at 0.5 µM [4]: 0 to 5% | inhibition at 0.01 µM ([3]; MDA-MB-231 cell, 10 nM): 0 to 5% | inhibition at 0.5 µM ([3]; MDA-MB-231 cell, 500 nM): 0 to 5%

Structure (SMILES): CNC(=O)c1ccc(Nc2ncc(C(F)(F)F)c(NCc3nccnc3N(C)S(C)(=O)=O)n2)cc1 [Defactinib, reference compound]
inhibition at 0.01 µM [1]: 5 to 10% | inhibition at 0.5 µM [1]: 5 to 10% | inhibition at 0.01 µM [2, 5]: 5 to 10% | inhibition at 0.5 µM [2, 6]: 60 to 70% | inhibition at 0.01 µM [3, 7]: 30 to 40% | inhibition at 0.5 µM [3, 8]: 30 to 40%

Structure (SMILES): CN(c1nccnc1CNc1nc(Nc2ccc(N3CCC(N4CCN(CC5CCN(c6cccc7c6C(=O)N(N6CCC(=O)NC6=O)C7=O)CC5)CC4)CC3)cc2)ncc1C(F)(F)F)S(C)(=O)=O [GT-08245, N-(3-(((2-((4-(4-(4-((1-(2-(2,4-dioxotetrahydropyrimidin-1(2H)-yl)-1,3-dioxoisoindolin-4-yl)piperidin-4-yl)methyl)piperazin-1-yl)piperidin-1-yl)phenyl)amino)-5-(trifluoromethyl)pyrimidin-4-yl)amino)methyl)pyrazin-2-yl)-N-methylmethanesulfonamide]
inhibition at 0.01 µM [1]: 5 to 10% | inhibition at 0.5 µM [1]: 80 to 100% | inhibition at 0.01 µM [2, 5]: 20 to 30% | inhibition at 0.5 µM [2, 6]: 80 to 100% | inhibition at 0.01 µM [3, 7]: 30 to 40% | inhibition at 0.5 µM [3, 8]: 80 to 100%

Structure (SMILES): CN(Cc1ccc2c(c1)C(=O)N(N1CCC(=O)NC1=O)C2)C1CCN(c2ccc(Nc3ncc(C(F)(F)F)c(NCc4nccnc4N(C)S(C)(=O)=O)n3)cc2)CC1 [GT-08136, N-(3-(((2-((4-(4-(((2-(2,4-dioxotetrahydropyrimidin-1(2H)-yl)-3-oxoisoindolin-5-yl)methyl)(methyl)amino)piperidin-1-yl)phenyl)amino)-5-(trifluoromethyl)pyrimidin-4-yl)amino)methyl)pyrazin-2-yl)-N-methylmethanesulfonamide]
inhibition at 0.01 µM [2, 5]: -5 to 0% | inhibition at 0.5 µM [2, 6]: 80 to 100% | inhibition at 0.01 µM [3, 7]: 20 to 30% | inhibition at 0.5 µM [3, 8]: 50 to 60%

Structure (SMILES): NCc1ccc2c(c1)CN(N1CCC(=O)NC1=O)C2=O [GT-08118, 1-(5-(aminomethyl)-1-oxoisoindolin-2-yl)dihydropyrimidine-2,4(1H, 3H)-dione]
inhibition at 0.01 µM ([2]; MV-4-11 cell, 10 nM): 40 to 50% | inhibition at 0.5 µM ([2]; MV-4-11 cell, 500 nM): 50 to 60% | inhibition at 0.01 µM [4]: 20 to 30% | inhibition at 0.5 µM [4]: 20 to 30% | inhibition at 0.01 µM ([3]; MDA-MB-231 cell, 10 nM): 20 to 30% | inhibition at 0.5 µM ([3]; MDA-MB-231 cell, 500 nM): 20 to 30%
